This passage reports EC50 results from patent US9067898B1, “Isothiazole derivatives as GPR120 agonists for the treatment of type II diabetes” (Janssen Pharmaceutica NV, priority 2014, dated 2015).

Assay [1] concerns the target T1, long form of human GPR120 (Homo sapiens, UniProt Q5NUL3).
T1 construct: host or cells: PathHunter CHO-K1 GPR120 β-Arrestin Cell Line
Nature of the assay: Human GPR120 DiscoveRx PathHunter Beta-Arrestin assay, Procedure β-arrestin A. Type of assay: cell-based. The conditions noted are these: PathHunter CHO-K1 GPR120 β-Arrestin cell line, 3000 cells per well, read-out: hGPR120 β-arrestin A EC50. The gist of the method: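 PathHunter CHO-K1 β-arrestin cells expressed long-form GPR120 (Procedure A, 3000 cells/well) or short-form GPR120 (Procedure B, 5000 cells/well). Compounds were serially diluted from 25 µM and incubated 90 min at 37 °C in HBSS/20 mM HEPES/0.1% BSA, pH 7.4. Luminescence was read after 60 min detection at RT; EC50 comes from % activity versus positive control, Hill slope fixed at 1.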

Assay [2] deals with T2, Human GPR120 short form (Homo sapiens, UniProt Q5NUL3).
T2 construct: expressed in transfected cells
T2 sequence (Q5NUL3 1-361): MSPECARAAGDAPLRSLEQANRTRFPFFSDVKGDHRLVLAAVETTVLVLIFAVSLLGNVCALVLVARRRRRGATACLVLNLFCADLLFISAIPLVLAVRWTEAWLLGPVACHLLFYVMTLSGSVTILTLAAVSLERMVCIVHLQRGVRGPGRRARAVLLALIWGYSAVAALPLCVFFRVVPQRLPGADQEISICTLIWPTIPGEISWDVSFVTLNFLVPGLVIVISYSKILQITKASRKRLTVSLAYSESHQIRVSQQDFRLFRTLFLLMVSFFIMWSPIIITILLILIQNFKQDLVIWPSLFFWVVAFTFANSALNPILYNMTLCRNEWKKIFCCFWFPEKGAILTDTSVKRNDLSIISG
Nature of the assay: Human GPR120 calcium flux assay (FLIPR), Procedure Calcium A. It counts as cell-based. The conditions noted are these: HEK-293 cells expressing human GPR120 short form, 2500 cells/well; read-out: GPR120 Ca2+ Assay A EC50. The gist of the method:
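HEK293 cells stably expressing the short isoform (NM_001195755.1), 2500/well, starved 1 h, then loaded with Fluo-4 NW plus probenecid (30 min 37 °C, 15 min RT). Compound solutions 0.012–100 μM, 0.2% DMSO final; FLIPR read 300 s after addition. EC50 from Fmax−Fmin fitted to variable-slope sigmoid (Hill <2).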
A general note: Calcium assays in cells follow changes in intracellular calcium, usually with a dye or a luminescent sensor.

T1 sequence (Q5NUL3 1-377 isoform Q5NUL3-1): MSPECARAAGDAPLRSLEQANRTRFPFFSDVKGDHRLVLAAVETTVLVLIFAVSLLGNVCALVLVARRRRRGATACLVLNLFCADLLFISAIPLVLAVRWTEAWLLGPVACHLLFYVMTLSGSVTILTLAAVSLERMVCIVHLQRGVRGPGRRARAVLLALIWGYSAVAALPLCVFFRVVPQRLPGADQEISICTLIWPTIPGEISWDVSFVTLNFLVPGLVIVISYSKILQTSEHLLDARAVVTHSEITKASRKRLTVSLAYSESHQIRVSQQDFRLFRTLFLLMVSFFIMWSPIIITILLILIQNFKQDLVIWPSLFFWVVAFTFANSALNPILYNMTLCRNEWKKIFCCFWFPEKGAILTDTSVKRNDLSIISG
T1 sequence (P32121 whole entry partner): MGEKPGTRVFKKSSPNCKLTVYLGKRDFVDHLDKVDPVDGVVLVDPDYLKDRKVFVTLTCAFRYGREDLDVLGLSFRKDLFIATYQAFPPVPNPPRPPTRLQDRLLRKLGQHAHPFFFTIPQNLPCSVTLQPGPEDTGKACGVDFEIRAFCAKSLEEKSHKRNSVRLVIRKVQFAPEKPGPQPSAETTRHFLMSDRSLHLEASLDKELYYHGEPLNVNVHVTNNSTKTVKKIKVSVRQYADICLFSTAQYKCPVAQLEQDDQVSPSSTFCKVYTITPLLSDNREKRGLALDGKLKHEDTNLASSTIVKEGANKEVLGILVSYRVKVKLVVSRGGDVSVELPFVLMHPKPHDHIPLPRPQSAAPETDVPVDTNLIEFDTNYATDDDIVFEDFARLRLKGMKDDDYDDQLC

For orientation: EC50 means the midpoint of the concentration-response curve. With `Cc1c(CCC(=O)O)ccc(OCc2c(-c3ccc(F)cc3)csc2C(F)(F)F)c1C` [Cpd 58, 3-(4-((4-(4-fluorophenyl)-2-(trifluoromethyl)thiophen-3-yl)methoxy)-2,3-dimethylphenyl)propanoic acid], the figures for the EC50 in assay [1] and in assay [2] were 639 nM and 293 nM, respectively.
Consider `CCc1ccc(-c2snc(Cl)c2COc2ccc(CCC(=O)O)c(F)c2F)cc1` [Cpd 66, 3-(4-[[3-chloro-5-(4-ethylphenyl)-1,2-thiazol-4-yl]methoxy]-2,3-difluorophenyl)propanoic acid], for which the concentration giving a half-maximal response (EC50) in assay [1] stood at 108 nM; in assay [2] it was 19 nM.
As for `O=C(O)CCc1ccc(OCc2c(-c3ccc(Cl)cc3)nsc2C(F)(F)F)c(Br)c1` [Cpd 69, 3-(3-bromo-4-[[3-(4-chlorophenyl)-5-(trifluoromethyl)-1,2-thiazol-4-yl]methoxy]phenyl)propanoic acid], the half-maximal effective concentration (EC50) is 83 nM in assay [1] and 31 nM in assay [2].
For the compound `CCc1ccc(-c2nsc(C(F)(F)F)c2COc2c(F)cc(CCC(=O)O)cc2F)cc1` [Cpd 70, 3-(4-[[3-(4-ethylphenyl)-5-(trifluoromethyl)-1,2-thiazol-4-yl]methoxy]-3,5-difluorophenyl)propanoic acid], the values for the half-maximal effective concentration (EC50) in assay [1] and in assay [2] were 98 nM and 34 nM, respectively.
The matching figures for `O=C(O)CCc1ccc(OCc2c(Cl)nsc2-c2ccc(Cl)cc2)c(F)c1F` [Cpd 72, 3-(4-[[3-chloro-5-(4-chlorophenyl)-1,2-thiazol-4-yl]methoxy]-2,3-difluorophenyl)propanoic acid]: 103 nM and 39 nM.
On to `CCc1ccc(-c2nsc(C(F)(F)F)c2COc2c(F)cc(CC(C)C(=O)O)cc2F)cc1` (stereo not drawn) [Cpd 80, 3-(4-[[3-(4-ethylphenyl)-5-(trifluoromethyl)-1,2-thiazol-4-yl]methoxy]-3,5-difluorophenyl)-2-methylpropanoic acid], for which the values for the EC50 in assay [1] and in assay [2] were 246 nM and 51 nM, respectively.
As to `COc1ccc(-c2nsc(C(F)(F)F)c2COc2c(F)cc(CCCO)cc2F)cn1` [Cpd 81, 3-(3,5-difluoro-4-[[3-(6-methoxypyridin-3-yl)-5-(trifluoromethyl)-1,2-thiazol-4-yl]methoxy]phenyl)propan-1-ol], the concentration for a half-maximal effect (EC50) in assay [1] was found to be 94 nM; in assay [2], 51 nM.
`Cc1c(CCC(=O)O)ccc(OCc2c(-c3ccc(Cl)c(F)c3)nsc2C(F)(F)F)c1C` [Cpd 82, 3-(4-((3-(4-chloro-3-fluorophenyl)-5-(trifluoromethyl)isothiazol-4-yl)methoxy)-2,3-dimethylphenyl)propanoic acid]: the EC50 in assay [1] turned out to be 172 nM; in assay [2] it was 54 nM.
For the compound `CCc1ccc(-c2snc(Cl)c2COc2ccc(CCCO)c(F)c2F)cc1` [Cpd 83, 3-(4-((3-chloro-5-(4-ethylphenyl)isothiazol-4-yl)methoxy)-2,3-difluorophenyl)propan-1-ol], the values for the EC50 in assay [1] and in assay [2] were 54 nM and 56 nM, respectively.
In the case of `Cc1ccc(-c2snc(C)c2COc2c(F)cc(CCC(=O)O)cc2F)c(F)c1` [Cpd 84, 3-(3,5-difluoro-4-[[5-(2-fluoro-4-methylphenyl)-3-methyl-1,2-thiazol-4-yl]methoxy]phenyl) propanoic acid], the EC50 was 119 nM in assay [1] and 56 nM in assay [2].
Consider `COc1ccc(-c2nsc(C(F)(F)F)c2COc2ccc(CCC(=O)O)c(C)c2C)cc1` [Cpd 86, 3-(4-[[3-(4-methoxyphenyl)-5-(trifluoromethyl)-1,2-thiazol-4-yl]methoxy]-2,3-dimethylphenyl) propanoic acid], for which the EC50 in assay [1] worked out at 85 nM; in assay [2], 57 nM.
Turning to `O=C(O)CCc1cc(F)c(OCc2c(-c3ccc4c(c3)OCO4)nsc2C(F)(F)F)c(F)c1` [Cpd 87, 3-(4-[[3-(2H-1,3-benzodioxol-5-yl)-5-(trifluoromethyl)-1,2-thiazol-4-yl]methoxy]-3,5-difluorophenyl)propanoic acid], the EC50 in assay [1] was found to be 88 nM; in assay [2] it was 62 nM.
